Assay results published in publication PMC11157491, “Novel Alaninamide Derivatives with Drug-like Potential for Development as Antiseizure and Antinociceptive Therapies—In Vitro and In Vivo Characterization” (ACS Chemical Neuroscience, 2024).

Legend:
[1] = tested on: mice; assay: Grip strength test; format: in vivo; conditions: 50 mg/kg i.p., 30 min before test
Procedure: The grip strength test was performed just before the ivPTZ test to assess the acute effect of compounds 26 and 28 on neuromuscular strength.
In studies assessing the acute effect of compounds 26 and 28 on the ivPTZ seizure threshold and neuromuscular strength, the compounds were suspended in a 1% solution of Tween 80 and administered i.p., at a dose of 50 mg/kg of body weight, 30 min before the tests. The experimental procedures of the timed ivPTZ test and the grip strength test were described in detail elsewhere.[64]
Data from the ivPTZ test and the grip strength test were analyzed using Student’s t-test.
Figure S1. Acute effects of compound 26 (A) and 28 (B) on grip strength in mice. Both compounds were administered i.p. at a dose of 50 mg/kg, 30 min before the test. Control animals received vehicle. Data are presented as means ± SEM of grip strength expressed in mN/g of body weight (n = 10animals). The statistical significance was evaluated by a Student's t test (GraphPad Prism 8). […]
Behavioral tests were performed 24 h after the last PTZ injection. […] The statistical significance was evaluated by one-way ANOVA followed by the Tukey’s post hoc test: *p < 0.05, (GraphPad Prism 8). […]

[2] = target: T1, Cav1.2 (h) calcium ion channel (Homo sapiens, UniProt Q13936); assay: Cav1.2 cell-based antagonist calcium flux assay; conditions: HEK293, human recombinant HEK-293 cell, read-out: % inhibition of control agonist response
T1 construct: Eurofins (contract assay)
Procedure: (§1) Importantly, sodium or calcium conductance is often associated with the pathophysiology of epilepsy as well as neuropathic pain.[46]−[50] Therefore, both sodium and calcium ion channels are well-established molecular targets for structurally diverse ASMs such as LCS, lamotrigine, carbamazepine, oxcarbazepine, etc.[51] Consequently, we carried out binding and/or functional studies toward the sodium channel (site 2) and calcium Cav1.2 channel at high concentrations (100 μM) of 26 and 28 (Table 5). […] Next, 26 and 28 due to the presence of the phenylpiperazine moiety, which is a well-recognized pharmacophore for serotoninergic receptor (5-HTxR) ligands,[52] were evaluated for their influence on 5-HT2CR, where stimulation plays a key role for the antiseizure activity of lorcaserin (one of the newest ASMs).[6]
(§2) Binding/functional studies were carried out commercially in Eurofins Laboratories (Poitiers, France) and Eurofins Panlabs Discovery Services Taiwan, Ltd. (New Taipei City, Taiwan) using testing procedures that were reported previously (for details, see Table S2).
(§3) Table S2. Radioligand binding and functional assays. […]
Cav1.2 (L-type) (h) calcium ion channel cell-based antagonist calcium flux assay […]
(§4) Assays were performed commercially in Eurofins Laboratories ( Poitiers, France) or Eurofins Panlabs Discovery Services
(§5) Taiwan, Ltd. (New Taipei City, Taiwan).

[3] = target: 5-HT2C (h) (Homo sapiens, UniProt P28335); assay: 5-HT2C agonist effect functional assay; format: cell-based; conditions: HEK293, human recombinant HEK-293 cell, read-out: % inhibition of control agonist response (5-HT2C agonist effect)
Procedure: as §1, §2, §3
5-HT2C (agonist effect)
as §4, §5

[4] = tested on: HSA and AGP; assay: in vitro; conditions: human, plasma
Procedure: The plasma protein binding: human serum albumin (HSA) and α1-acid glycoprotein (AGP) was evaluated by the commercial TRANSIL^XL PPB assay.

[5] = target: CYP2D6 (Homo sapiens, UniProt P10635); conditions: 1 μM
[6] = tested on: mice; assay: Capsaicin-induced pain; format: in vivo; conditions: Mus musculus, ip, 30 min before capsaicin
Procedure: The experimental groups consisted of 10 adult male Albino Swiss mice (CD-1, 18–25 g). Each animal was tested only once. Immediately after the assay, the animals were sacrificed by cervical dislocation. Behavioral measurements were observed by trained observers. The in vivo antinociceptive assays were in accordance with Polish regulations and the European Union Directive of 22 Sept 2010 (2010/63/EU). All procedures were carried out according to the rules of the International Council on Laboratory Animal Science (ICLAS) and were approved by the Local Ethics Committee in Cracow, Poland (104/2015, 279/2019, and 614/2022). The tested substances were suspended in a 1% aqueous solution of Tween 80 and were injected i.p. 30 min prior to the test. […] The in vivo procedure for the model of capsaicin-induced nociception was previously reported;[67] the animals were pretreated with vehicle (10 mL/kg, negative control), and the dose–response of investigated compounds was evaluated at 12.5, 25, and 50 mg/kg.
Data are presented as means ± standard error of the mean (SEM). […] Statistically significant differences between groups were calculated using one-way analysis of variance (ANOVA) and the post hoc Dunnett’s multiple comparison test or two-way analysis of variance (ANOVA). […]

Sequence of CYP2D6 (P10635 whole entry): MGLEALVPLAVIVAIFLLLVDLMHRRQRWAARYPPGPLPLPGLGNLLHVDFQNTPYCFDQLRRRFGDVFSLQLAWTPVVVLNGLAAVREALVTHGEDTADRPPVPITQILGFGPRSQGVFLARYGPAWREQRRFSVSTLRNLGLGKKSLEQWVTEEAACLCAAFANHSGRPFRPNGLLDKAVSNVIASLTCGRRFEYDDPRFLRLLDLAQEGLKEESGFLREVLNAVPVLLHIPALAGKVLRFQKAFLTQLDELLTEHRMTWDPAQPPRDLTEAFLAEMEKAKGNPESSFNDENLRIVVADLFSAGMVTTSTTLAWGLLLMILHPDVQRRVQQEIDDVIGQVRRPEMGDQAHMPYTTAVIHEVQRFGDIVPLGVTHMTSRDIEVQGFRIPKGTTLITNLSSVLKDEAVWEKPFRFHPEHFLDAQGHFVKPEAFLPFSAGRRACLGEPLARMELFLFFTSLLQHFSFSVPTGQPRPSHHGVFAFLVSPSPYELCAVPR
Sequence of 5-HT2C (h) (P28335 33-458): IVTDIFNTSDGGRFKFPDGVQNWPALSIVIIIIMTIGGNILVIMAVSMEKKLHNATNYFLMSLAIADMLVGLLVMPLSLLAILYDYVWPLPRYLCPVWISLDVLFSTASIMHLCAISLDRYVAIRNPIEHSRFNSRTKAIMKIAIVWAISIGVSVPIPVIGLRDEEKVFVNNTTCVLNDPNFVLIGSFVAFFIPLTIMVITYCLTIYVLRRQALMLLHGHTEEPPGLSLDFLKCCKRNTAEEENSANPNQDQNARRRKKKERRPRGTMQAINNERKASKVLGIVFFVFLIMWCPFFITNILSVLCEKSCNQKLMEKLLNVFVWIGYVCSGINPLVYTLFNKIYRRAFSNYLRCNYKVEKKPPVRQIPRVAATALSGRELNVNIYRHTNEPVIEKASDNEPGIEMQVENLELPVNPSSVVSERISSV
T1 sequence (Q13936 whole entry): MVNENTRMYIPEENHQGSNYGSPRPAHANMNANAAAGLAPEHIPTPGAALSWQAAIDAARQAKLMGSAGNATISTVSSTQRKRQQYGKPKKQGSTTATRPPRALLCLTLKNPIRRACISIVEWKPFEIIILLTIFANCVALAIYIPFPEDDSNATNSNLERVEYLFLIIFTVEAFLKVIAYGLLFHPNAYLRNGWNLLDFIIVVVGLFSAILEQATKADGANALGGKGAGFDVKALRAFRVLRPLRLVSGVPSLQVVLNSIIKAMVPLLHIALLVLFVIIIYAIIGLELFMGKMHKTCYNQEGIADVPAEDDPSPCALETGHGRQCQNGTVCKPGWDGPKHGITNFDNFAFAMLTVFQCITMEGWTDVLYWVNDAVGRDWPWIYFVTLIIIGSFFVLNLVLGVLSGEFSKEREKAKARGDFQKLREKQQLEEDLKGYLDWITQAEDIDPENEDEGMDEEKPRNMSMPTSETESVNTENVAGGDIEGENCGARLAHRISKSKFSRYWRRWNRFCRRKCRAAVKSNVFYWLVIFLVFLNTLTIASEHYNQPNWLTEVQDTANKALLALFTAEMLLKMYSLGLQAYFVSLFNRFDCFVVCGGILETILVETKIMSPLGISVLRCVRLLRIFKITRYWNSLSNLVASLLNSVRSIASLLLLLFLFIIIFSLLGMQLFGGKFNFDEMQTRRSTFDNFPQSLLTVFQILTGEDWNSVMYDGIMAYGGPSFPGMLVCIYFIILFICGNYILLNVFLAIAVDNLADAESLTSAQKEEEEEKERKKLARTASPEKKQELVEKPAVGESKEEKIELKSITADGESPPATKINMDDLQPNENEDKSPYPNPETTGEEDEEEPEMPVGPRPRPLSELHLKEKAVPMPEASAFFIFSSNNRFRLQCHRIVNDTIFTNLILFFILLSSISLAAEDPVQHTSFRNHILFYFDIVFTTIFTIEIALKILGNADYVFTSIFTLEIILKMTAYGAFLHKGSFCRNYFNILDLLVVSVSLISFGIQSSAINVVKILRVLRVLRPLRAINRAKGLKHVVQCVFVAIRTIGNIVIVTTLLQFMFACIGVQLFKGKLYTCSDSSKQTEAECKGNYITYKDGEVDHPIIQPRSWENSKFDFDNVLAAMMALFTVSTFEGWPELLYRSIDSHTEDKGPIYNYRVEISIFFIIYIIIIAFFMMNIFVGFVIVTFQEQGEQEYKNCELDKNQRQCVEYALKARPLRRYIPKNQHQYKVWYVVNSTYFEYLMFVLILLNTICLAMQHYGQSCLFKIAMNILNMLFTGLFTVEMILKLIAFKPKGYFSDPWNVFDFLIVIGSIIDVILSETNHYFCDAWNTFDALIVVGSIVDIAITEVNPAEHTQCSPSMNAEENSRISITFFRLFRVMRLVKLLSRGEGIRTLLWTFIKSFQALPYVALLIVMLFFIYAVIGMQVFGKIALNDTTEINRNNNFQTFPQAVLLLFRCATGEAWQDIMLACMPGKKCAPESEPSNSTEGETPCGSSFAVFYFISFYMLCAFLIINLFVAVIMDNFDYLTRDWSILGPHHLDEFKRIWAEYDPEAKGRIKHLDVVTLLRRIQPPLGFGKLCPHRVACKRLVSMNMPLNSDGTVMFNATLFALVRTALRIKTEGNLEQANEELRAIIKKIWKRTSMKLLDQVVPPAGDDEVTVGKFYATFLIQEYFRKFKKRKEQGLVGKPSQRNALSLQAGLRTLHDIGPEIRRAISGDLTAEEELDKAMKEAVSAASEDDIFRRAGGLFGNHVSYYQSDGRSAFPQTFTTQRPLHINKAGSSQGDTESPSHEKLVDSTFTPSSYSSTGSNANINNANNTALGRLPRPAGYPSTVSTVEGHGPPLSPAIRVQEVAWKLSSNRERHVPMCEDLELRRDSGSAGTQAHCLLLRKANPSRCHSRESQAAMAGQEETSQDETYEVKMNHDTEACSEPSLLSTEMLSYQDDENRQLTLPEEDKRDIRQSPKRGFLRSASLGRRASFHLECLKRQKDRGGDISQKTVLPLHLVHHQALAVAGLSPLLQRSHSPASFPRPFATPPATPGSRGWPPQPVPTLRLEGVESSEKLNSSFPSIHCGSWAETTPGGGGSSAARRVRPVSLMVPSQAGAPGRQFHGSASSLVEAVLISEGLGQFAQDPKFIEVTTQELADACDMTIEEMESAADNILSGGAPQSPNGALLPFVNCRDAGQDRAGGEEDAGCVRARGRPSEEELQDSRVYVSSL
T1 sequence (Q08289 whole entry partner): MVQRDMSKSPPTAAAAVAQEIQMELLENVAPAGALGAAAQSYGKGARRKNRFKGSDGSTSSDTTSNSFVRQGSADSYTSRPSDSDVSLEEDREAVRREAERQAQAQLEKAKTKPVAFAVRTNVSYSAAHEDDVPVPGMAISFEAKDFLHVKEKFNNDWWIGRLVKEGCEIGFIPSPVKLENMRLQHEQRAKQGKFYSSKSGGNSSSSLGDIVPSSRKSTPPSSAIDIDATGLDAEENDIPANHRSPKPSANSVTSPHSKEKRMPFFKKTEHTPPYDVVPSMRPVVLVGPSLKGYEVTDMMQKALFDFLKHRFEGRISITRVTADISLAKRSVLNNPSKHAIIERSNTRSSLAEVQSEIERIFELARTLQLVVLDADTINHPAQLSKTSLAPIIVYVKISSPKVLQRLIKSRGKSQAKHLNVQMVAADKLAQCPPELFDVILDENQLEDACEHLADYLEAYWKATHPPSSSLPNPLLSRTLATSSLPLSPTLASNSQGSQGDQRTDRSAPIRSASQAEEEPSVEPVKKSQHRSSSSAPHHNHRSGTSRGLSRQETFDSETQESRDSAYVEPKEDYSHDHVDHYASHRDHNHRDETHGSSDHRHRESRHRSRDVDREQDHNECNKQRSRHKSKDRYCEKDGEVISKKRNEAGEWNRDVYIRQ
T1 sequence (P54289 25-956 partner limits assumed): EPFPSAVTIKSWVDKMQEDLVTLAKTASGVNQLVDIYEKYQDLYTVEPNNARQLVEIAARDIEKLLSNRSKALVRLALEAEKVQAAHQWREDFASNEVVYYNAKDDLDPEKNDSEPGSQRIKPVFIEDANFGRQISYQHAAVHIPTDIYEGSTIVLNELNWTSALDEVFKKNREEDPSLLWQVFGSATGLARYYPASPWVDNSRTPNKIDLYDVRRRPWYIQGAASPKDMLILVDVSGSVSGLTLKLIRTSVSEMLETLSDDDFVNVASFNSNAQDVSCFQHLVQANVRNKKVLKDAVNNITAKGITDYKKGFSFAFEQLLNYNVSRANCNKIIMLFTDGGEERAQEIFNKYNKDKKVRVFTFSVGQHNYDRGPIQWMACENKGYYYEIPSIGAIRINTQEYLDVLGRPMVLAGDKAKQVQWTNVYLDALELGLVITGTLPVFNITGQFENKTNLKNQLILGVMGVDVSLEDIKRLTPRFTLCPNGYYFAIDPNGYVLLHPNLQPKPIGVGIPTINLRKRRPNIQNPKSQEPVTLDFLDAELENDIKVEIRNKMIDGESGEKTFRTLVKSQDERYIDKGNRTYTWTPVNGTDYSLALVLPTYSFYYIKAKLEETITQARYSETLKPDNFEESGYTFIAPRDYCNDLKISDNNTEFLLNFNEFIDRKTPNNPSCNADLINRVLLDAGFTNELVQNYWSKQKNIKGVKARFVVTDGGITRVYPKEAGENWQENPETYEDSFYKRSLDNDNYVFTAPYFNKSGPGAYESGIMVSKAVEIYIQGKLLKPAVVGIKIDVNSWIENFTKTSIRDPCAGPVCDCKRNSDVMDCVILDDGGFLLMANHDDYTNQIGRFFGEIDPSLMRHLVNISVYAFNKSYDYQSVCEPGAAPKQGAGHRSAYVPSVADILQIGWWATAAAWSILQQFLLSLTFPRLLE
T1 sequence (P54289 957-1103 partner limits assumed): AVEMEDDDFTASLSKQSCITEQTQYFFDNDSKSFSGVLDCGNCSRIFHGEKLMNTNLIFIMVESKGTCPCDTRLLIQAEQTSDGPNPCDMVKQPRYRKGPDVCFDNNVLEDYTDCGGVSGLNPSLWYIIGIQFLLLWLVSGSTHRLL

Compound	neuromuscular strength (grip strength) [1]	inhibition at 100 µM [2] [%]	inhibition at 10 µM [3] [%]	fraction unbound [4]	CYP2D6 activity (% of control ± SD) [5] [%]	ED50 [6] [mg/kg]
CC(=O)NC(C)C(=O)N1CCN(c2cccc(C(F)(F)F)c2)CC1 (centres unmarked) [Compound 26, N-(1-oxo-1-(4-(3-(Trifluoromethyl)phenyl)piperazin-1-yl)propan-2-yl)acetamide]	Neither compound 26 nor 28 (50 mg/kg) significantly affect	7	0.5	0.214	122.8 ± 11.7	
CC(=O)NC(C)C(=O)N1CCN(c2cccc(OC(F)(F)F)c2)CC1 (centres unmarked) [Compound 28, N-(1-oxo-1-(4-(3-(Trifluoromethoxy)phenyl)piperazin-1-yl)propan-2-yl)acetamide]	Neither compound 26 nor 28 (50 mg/kg) significantly affect	-7.9	0.1	0.17	115.0 ± 4.5	27.5
